Laboratory results: patent US4954488A, “Method of treating hyperaldosteronism using 17β-cyclopropylaminoandrostene derivatives” (Merrell Dow Pharmaceuticals Inc., priority 1989, dated 1990)
pIC50, pKi: −log10 of the molar value.

Target: T1, enzymes in the synthesis of aldosterone (Rattus norvegicus, UniProt P30099)
T1 construct: From these animals, adrenal capsule/glomerulosa homogenates were prepared; from tissue; host or cells: adrenal capsule/glomerulosa homogenate of sodium-deficient young male Sprague-Dawley rats
Assay: Inhibition of aldosterone formation from [3H]-DOC in rat adrenal capsule/glomerulosa homogenates
Format: biochemical, Sprague-Dawley rats
Conditions: pH 7.4, 25° C.; for pIC50: 40 minute preincubation data, 10-minute assay, 1 μM [3H]-DOC, read-out: IC50 (half-maximal inhibition of aldosterone formation); for t50 (t1/2 for enzyme inactivation at infinite inhibitor concentration) / pKi: linear regression of t1/2 vs. 1/[I], Kitz-Wilson plots; for pKi: read-out: Ki for time-dependent inhibition
Protocol: Young male Sprague-Dawley rats were maintained on a sodium-deficient diet for about two weeks prior to use. From these animals, adrenal capsule/glomerulosa homogenates were prepared (6 mg/ml) in pH 7.4 assay buffer [MgCl2 8.5 mM, CaCl2 2.7 mM, KCl 3.13 mM, NaCl 7.591 mM, TRIS 50 mM and 0.1% triethylamine] and centrifuged 500xg for 10 minutes.
Assays were conducted in 35 ml glass tubes maintained at 25° C. in a Dubnoff shaker with 95% O2 /5% CO2. The tubes contained the following material: 100 μl of an NADPH^+ generating system, 300 μl of adrenal capsular/glomerulosa cytosol, and 50 μl of test compound or buffer (control). After initial preincubation intervals of 20 minutes, the 10-minute assay was started by the addition of 50 μl of tritium-labelled substrate, i.e., 1 μM [^3 H]-DOC. Reactions were quenched by the addition of 5 ml of ethyl acetate and non-radiolabelled steroids were also added. The samples were extracted twice with 5 ml of ethyl acetate and the solvent evaporated under nitrogen at 30°-40° C.
Residues were redissolved in methanol:water (40:60) with 0.1% triethylamine and high performance liquid chromatography was used to separate products on a C18 reverse phase (5μ ODS-Hypersil) column (4.6×250 mm, Shannon) with a 1 ml/min flow rate using an MeOH:H20 gradient (solvent A 10/90:solvent B 90/10).
Substrate remaining and products formed were monitored by UV absorbance at 246 nm and the amount of steroid compound present was quantified by [^3 H] radioactivity. The concentration of compound to produce half-maximal inhibition (IC50) of aldosterone formation from the 40 minute preincubation data was graphically estimated from a linear-log plot of percent inhibition vs. log of the compound concentration. The Ki for time-dependent inhibition and the t1/2 for enzyme inactivation at infinite inhibitor concentration (t50) was determined by the linear regression analyses of t1/2 vs. 1/[I] data of Kitz-Wilson plots. Using this procedure, the following results were observed: […]

SMILES	pIC50	t50 (t1/2 for enzyme inactivation at infinite inhibitor concentration)	pKi
C[C@]12CC[C@H]3[C@@H](CCC4=CC(=O)CC[C@@]43C)[C@@H]1CC[C@@H]2NC1CC1 [17β-(Cyclopropylamino)androst-4-en-3-one]	6.74	–	–
C[C@]12CC[C@H]3[C@@H](CC=C4C[C@@H](O)CC[C@@]43C)[C@@H]1CC[C@@H]2NC1CC1 [17β-(Cyclopropylamino)androst-5-en-3β-ol]	5.96	9.7 min	5.31
CN(C1CC1)[C@H]1CC[C@H]2[C@@H]3CC=C4C[C@@H](O)CC[C@]4(C)[C@H]3CC[C@]12C [17β-[N-Methyl(cyclopropylamino)]-androst-5-en-3β-ol]	6.46	9.0 min	6.46
CN(C1CC1)[C@H]1CC[C@H]2[C@@H]3CCC4=CC(=O)CC[C@]4(C)[C@H]3CC[C@]12C [17β-[N-Methyl(cyclopropylamino)]androst-4-en-3-one]	6.89	15.4 min	6.85
